Measurements as given in US8198456B2, “Dihydropyridine derivatives as useful as protein kinase inhibitors” (Bayer Intellectual Property GmbH, priority 2006, dated 2012).

The molecules below were run against T1, recombinant human c-MET kinase enzyme domain (Homo sapiens, UniProt P08581) (assay: c-MET receptor tyrosine kinase Homogeneous Time Resolved Fluorescence assay (HTRF)). Conditions: Biological Example 1 and/or Biological Example 2.
T1 construct: Recombinant c-Met kinase domain (amino acids 960-1390); His (N); made in house; host or cells: baculovirus expression system (insect cells; SF21 is named only for the alternative format)
T1 sequence (P08581 960-1390): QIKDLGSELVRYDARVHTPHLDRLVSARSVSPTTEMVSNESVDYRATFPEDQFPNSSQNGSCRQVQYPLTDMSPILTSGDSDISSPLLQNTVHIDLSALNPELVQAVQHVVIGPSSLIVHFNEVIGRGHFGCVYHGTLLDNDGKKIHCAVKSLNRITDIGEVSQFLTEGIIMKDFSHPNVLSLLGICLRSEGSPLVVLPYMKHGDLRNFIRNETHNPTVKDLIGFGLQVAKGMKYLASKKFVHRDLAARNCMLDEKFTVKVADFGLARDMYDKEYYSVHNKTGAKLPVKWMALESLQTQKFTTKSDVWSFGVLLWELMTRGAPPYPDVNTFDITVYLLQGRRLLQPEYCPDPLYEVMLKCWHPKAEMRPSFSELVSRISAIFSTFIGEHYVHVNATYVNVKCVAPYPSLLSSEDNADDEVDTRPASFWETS
Type: biochemical
Excerpt: Recombinant c-Met kinase domain (amino acids 960-1390) was produced in a baculovirus expression vector as an N-terminal His-tagged fusion protein and purified on a NiNTA column. The resulting purified enzyme was then used in the following c-Met Homogeneous Time Resolved Fluorescence assay (HTRF) to find compounds of the invention and to perform initial activity determinations. Specifically, this assay measures the ability of compounds of the invention to inhibit the phosphorylation of a randomly synthesized, biotinylated heterocopolymeric polypeptide composed of glutamic acid and tyrosine, with an average length of 100 aa. The assay analyzes the amount of phosphorylated polypeptide produced.
The enzymatic phosphorylation of the biotinylated heterocopolymeric polypeptide was performed in a black 384-well plate at ambient temperature in a reaction mixture containing 50 mM HEPES (pH 7.4), 5 mM MgCl2, 5 mM MnCl2, 0.01% Tween-20, and 2 mM DTT, […] recombinant human c-MET kinase enzyme domain, 37 nM biotinylated heterocopolymeric polypeptide composed of glutamic acid and tyrosine, 20 μM ATP, 1% DMSO in the absence or presence of a compound of the invention. The reaction was stopped after a 20-minute incubation by the addition of 80 mM EDTA.
The formation of phosphorylated heterocopolymeric, biotinylated polypeptide was quantified with the HTRF assay technology using an anti-phosphotyrosine antibody, PT66, conjugated to europium cryptate, mixed with a streptavidin-XL665 conjugate. Reduced or inhibited phosphorylation of the heterocopolymeric, biotinylated polypeptide prevents the anti-phosphotyrosine antibody from binding to the peptide, resulting in a loss of energy transfer to the streptavidin-XL665 conjugate.
Following the 384-well enzymatic phosphorylation reaction outlined above, the detection of phosphorylated heterocopolymeric, biotinylated polypeptide was performed by dilution of the stopped reaction mixture 2-fold with 50 mM HEPES (pH 7.0), 500 mM KF, 0.1% BSA, streptavidin-XL665 (20 nM), and anti-phosphotyrosine antibody PT66-crypate conjugate (6.4 ng/well) and incubation for four hours at ambient temperature. Plates were read in an Envision plate reader (PerkinElmer Life and Analytical Sciences, Inc., MA) simultaneously at 620 nm and 665 nm to obtain signal ratios of 665 nm/620 nm. Results of energy transfer were expressed as signal ratios of 665 nm/620 nm. Negative controls were samples without recombinant c-MET or c-MET treated with 100 mM EDTA.
For determination of IC50 values of particular compounds of the invention, eight serially diluted compound concentrations (at 1:3.16 dilution) were used in the assay. Controls without a compound of the invention or with a reference compound were run in parallel in the same assay plate.
With `COC(=O)c1ccc(CNc2n[nH]c3ccc(C4C(C#N)=C(C)NC(C)=C4C#N)cc23)cc1` [compound 135, 4-[[[5-(3,5-dicyano-1,4-dihydro-2,6-dimethyl-4-pyridinyl)-1H-indazol-3-yl]-amino]methyl]-benzoic acid methyl ester] the IC50 was less than 100 nM. With `CC1=C(C#N)C(c2ccc3[nH]nc(NCc4ccc(C(=O)O)cc4)c3c2)C(C#N)=C(C)N1` [compound 136, 4-[[[5-(3,5-dicyano-1,4-dihydro-2,6-dimethyl-4-pyridinyl)-1H-indazol-3-yl]-amino]methyl]-benzoic acid] the IC50 was less than 100 nM. For `CC1=C(C#N)C(c2ccc3[nH]nc(-c4ccc(N5CCN(C)CC5)nc4)c3c2)C(C#N)=C(C)N1` [compound 137, 1,4-dihydro-2,6-dimethyl-4-[3-[6-(4-methyl-1-piperazinyl)-3-pyridinyl]-1H-indazol-5-yl]-3,5-pyridinedicarbonitrile], the IC50 was less than 100 nM. Molecule `CC1=C(C#N)C(c2ccc3[nH]nc(-c4ccc(CN(C)C)cc4)c3c2)C(C#N)=C(C)N1` [compound 138, 4-[3-[4-[(dimethylamino)methyl]phenyl]-1H-indazol-5-yl]-1,4-dihydro-2,6-dimethyl-3,5-pyridinedicarbonitrile] has an IC50 of less than 100 nM. With `CC1=C(C#N)C(c2ccc3[nH]nc(C#CCN(C)C)c3c2)C(C#N)=C(C)N1` [compound 139, 4-[3-[3-(dimethylamino)-1-propynyl]-1H-indazol-5-yl]-1,4-dihydro-2,6-dimethyl-3,5-pyridinedicarbonitrile] the IC50 was less than 100 nM. Molecule `CC1=C(C#N)C(c2ccc3[nH]nc(-c4ccc(N5CCN(C)CC5)cc4)c3c2)C(C#N)=C(C)N1` [compound 140, 1,4-dihydro-2,6-dimethyl-4-[3-[4-(4-methyl-1-piperazinyl)phenyl]-1H-indazol-5-yl]-3,5-pyridinedicarbonitrile] has an IC50 of less than 100 nM. Molecule `CCN(CC)CC(=O)Nc1n[nH]c2ccc(C3C(C#N)=C(C)NC(C)=C3C#N)cc12` [compound 141, N-[5-(3,5-dicyano-1,4-dihydro-2,6-dimethyl-4-pyridinyl)-1H-indazol-3-yl]-2-(diethylamino)-acetamide] has an IC50 of 500 to 2500 nM. Work on `CC1=C(C#N)C(c2ccc3[nH]nc(-c4nc5ccccc5[nH]4)c3c2)C(C#N)=C(C)N1` [compound 142, 4-[3-(1H-benzimidazol-2-yl)-1H-indazol-5-yl]-1,4-dihydro-2,6-dimethyl-3,5-pyridinedicarbonitrile] yielded an IC50 of less than 100 nM. `CON(C)C(=O)c1n[nH]c2ccc(C3C(C#N)=C(C)NC(C)=C3C#N)cc12` [compound 143, 5-(3,5-dicyano-1,4-dihydro-2,6-dimethyl-4-pyridinyl)-N-methoxy-N-methyl-1H-indazole-3-carboxamide] showed an IC50 of less than 100 nM. `CC1=C(C#N)C(c2ccc3[nH]nc(CO)c3c2)C(C#N)=C(C)N1` [compound 144, 1,4-dihydro-4-[3-(hydroxymethyl)-1H-indazol-5-yl]-2,6-dimethyl-3,5-pyridinedicarbonitrile] gave an IC50 of less than 100 nM. `CC1=C(C#N)C(c2ccc3[nH]nc(C=O)c3c2)C(C#N)=C(C)N1` [compound 145, 4-(3-formyl-1H-indazol-5-yl)-1,4-dihydro-2,6-dimethyl-3,5-pyridinedicarbonitrile] showed an IC50 of less than 100 nM. Molecule `CNC(=O)Nc1n[nH]c2ccc(C3C(C#N)=C(C)NC(C)=C3C#N)cc12` [compound 147, N-[5-(3,5-dicyano-1,4-dihydro-2,6-dimethyl-4-pyridinyl)-1H-indazol-3-yl]-N′-methyl-urea] has an IC50 of less than 100 nM. `CC1=C(C#N)C(c2ccc3[nH]nc(Cl)c3c2)C(C#N)=C(C)N1` [compound 148, 4-(3-chloro-1H-indazol-5-yl)-1,4-dihydro-2,6-dimethyl-3,5-pyridinedicarbonitrile] showed an IC50 of less than 100 nM. Work on `CC1=C(C#N)C(c2ccc3[nH]nc(/C=N/O)c3c2)C(C#N)=C(C)N1` [compound 149, 1,4-dihydro-4-[3-[(E)-(hydroxyimino)methyl]-1H-indazol-5-yl]-2,6-dimethyl-3,5-pyridinedicarbonitrile] yielded an IC50 of less than 100 nM. `CC1=C(C#N)C(c2ccc3[nH]nc(NCc4cnc[nH]4)c3c2)C(C#N)=C(C)N1` [compound 150, 1,4-dihydro-4-[3-[(1H-imidazol-4-ylmethyl)amino]-1H-indazol-5-yl]-2,6-dimethyl-3,5-pyridinedicarbonitrile] was tested, and the IC50 was less than 100 nM. `CC1=C(C#N)C(c2ccc3[nH]nc(Br)c3c2)C(C#N)=C(C)N1` [compound 151, 4-(3-bromo-1H-indazol-5-yl)-1,4-dihydro-2,6-dimethyl-3,5-pyridinedicarbonitrile] was tested, and the IC50 was less than 100 nM. For `CC1=C(C#N)C(c2ccc3[nH]nc(-c4ccc(N5CCN(CCO)CC5)cc4)c3c2)C(C#N)=C(C)N1` [compound 152, 1,4-dihydro-4-[3-[4-[4-(2-hydroxyethyl)-1-piperazinyl]phenyl]-1H-indazol-5-yl]-2,6-dimethyl-3,5-pyridinedicarbonitrile], the IC50 was less than 100 nM. `CC1=C(C#N)C(c2ccc3[nH]nc(-c4ccc(N5CCN(C(=O)OC(C)(C)C)CC5)cc4)c3c2)C(C#N)=C(C)N1` [compound 155, 4-[4-[5-(3,5-dicyano-1,4-dihydro-2,6-dimethyl-4-pyridinyl)-1H-indazol-3-yl]-phenyl]-1-piperazinecarboxylic acid 1,1-dimethylethyl ester] gave an IC50 of less than 100 nM. `CC1=C(C#N)C(c2ccc3[nH]nc(-c4cnn(C5CCNCC5)c4)c3c2)C(C#N)=C(C)N1` [compound 157, 1,4-dihydro-2,6-dimethyl-4-[3-[1-(4-piperidinyl)-1H-pyrazol-4-yl]-1H-indazol-5-yl]-3,5-pyridinedicarbonitrile] was tested, and the IC50 was less than 100 nM. For `CC(=O)c1n[nH]c2ccc(C3C(C#N)=C(C)NC(C)=C3C#N)cc12` [compound 158, 4-(3-acetyl-1H-indazol-5-yl)-1,4-dihydro-2,6-dimethyl-3,5-pyridinedicarbonitrile], the IC50 was less than 100 nM. Work on `CO/N=C/c1n[nH]c2ccc(C3C(C#N)=C(C)NC(C)=C3C#N)cc12` [compound 159, 1,4-dihydro-4-[3-[(E)-(methoxyimino)methyl]-1H-indazol-5-yl]-2,6-dimethyl-3,5-pyridinedicarbonitrile] yielded an IC50 of less than 100 nM. Work on `CC1=C(C#N)C(c2ccc3[nH]nc(/C(C)=N/O)c3c2)C(C#N)=C(C)N1` [compound 160, 1,4-dihydro-4-[3-[(1E)-1-(hydroxyimino)ethyl]-1H-indazol-5-yl]-2,6-dimethyl-3,5-pyridinedicarbonitrile] yielded an IC50 of less than 100 nM. For `CC1=C(C#N)C(c2ccc3[nH]nc(NCc4ccc(N5CCOCC5)cc4)c3c2)C(C#N)=C(C)N1` [compound 163, 1,4-dihydro-2,6-dimethyl-4-[3-[[[4-(4-morpholinyl)phenyl]methyl]amino]-1H-indazol-5-yl]-3,5-pyridinedicarbonitrile], the IC50 was less than 100 nM. `CC1=C(C#N)C(c2ccc3[nH]nc(N4CCNCC4)c3c2)C(C#N)=C(C)N1` [compound 164, 1,4-dihydro-2,6-dimethyl-4-[3-(1-piperazinyl)-1H-indazol-5-yl]-3,5-pyridinedicarbonitrile] was tested, and the IC50 was less than 100 nM. Work on `CC1=C(C#N)C(c2ccc3[nH]nc(CN4CCN(CCO)CC4)c3c2)C(C#N)=C(C)N1` [compound 166, 1,4-dihydro-4-[3-[[4-(2-hydroxyethyl)-1-piperazinyl]methyl]-1H-indazol-5-yl]-2,6-dimethyl-3,5-pyridinedicarbonitrile] yielded an IC50 of less than 100 nM. In the case of `CC1=C(C#N)C(c2ccc3[nH]nc(NCc4ccc(C(=O)N5CCC(O)C5)cc4)c3c2)C(C#N)=C(C)N1` (centres unmarked) [compound 168, 1,4-dihydro-4-[3-[[[4-[(3-hydroxy-1-pyrrolidinyl)carbonyl]phenyl]methyl]amino]-1H-indazol-5-yl]-2,6-dimethyl-3,5-pyridinedicarbonitrile], the IC50 is reported as less than 100 nM. `CC1=C(C#N)C(c2ccc3[nH]nc(C(F)(F)F)c3c2)C(C#N)=C(C)N1` [compound 169, 1,4-dihydro-2,6-dimethyl-4-[3-(trifluoromethyl)-1H-indazol-5-yl]-3,5-pyridinedicarbonitrile] showed an IC50 of 500 to 2500 nM. For `CC1=C(C#N)C(c2ccc3[nH]nc(-c4ncc[nH]4)c3c2)C(C#N)=C(C)N1` [compound 170, 1,4-dihydro-4-[3-(1H-imidazol-2-yl)-1H-indazol-5-yl]-2,6-dimethyl-3,5-pyridinedicarbonitrile], the IC50 was less than 100 nM. Molecule `CC1=C(C#N)C(c2ccc3[nH]nc(NCc4ccc(N(C)CCO)cc4)c3c2)C(C#N)=C(C)N1` [compound 172, 1,4-dihydro-4-[3-[[[4-[(2-hydroxyethyl)methylamino]phenyl]methyl]amino]-H-indazol-5-yl]-2,6-dimethyl-3,5-pyridinedicarbonitrile] has an IC50 of less than 100 nM.
